Reference: patent US9562035B2, “Benzamide derivative useful as FASN inhibitors for the treatment of cancer” (Janssen Pharmaceutica NV, priority 2013, dated 2017)

What was measured:
[1] = biological target: T1, hFASN enzyme (full length) (Homo sapiens, UniProt P49327); test: Fatty Acid Synthase (FASN) Inhibition Scintillation Proximity Assay; assay type: biochemical; settings: for IC50: mean where tested more than once, ~ = standard error of pIC50 larger than 0.5; for inhibition at 10 µM: read-out: FASN % Effect @1E−05M
T1 construct: 10 μL hFASN enzyme (full length, 300 ng, purified in house); made in house
Summary of the method: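 Eight compound concentrations (0.01–30 μM) tested in pH 7.5 phosphate buffer with DTT; human full-length enzyme converted [3H]-acetyl-CoA plus malonyl-CoA, with NADPH, over 60 min at room temperature. Hydrophobic [3H]-palmitate detected by bead proximity scintillation imaging; control-normalised data fitted for IC50/pIC50.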

A2780 ovarian cells [2] = test: A2780 Ovarian Cell Proliferation Assay in Lipid Reduced Medium, with Palmitate (control); assay type: cell-based; settings: Homo sapiens, A2780; lipid reduced medium, 25 μM palmitate, 96 h, MTT; read-out: Proliferation A2780 with Palmitate pIC50 (converted)
Summary of the method: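 Read-out was MTT absorbance at 544 nm after 96 h at 37 °C. Cells grown overnight in RPMI1640/10% FCS were moved to 10% lipid-reduced serum with compound plus palmitate (final 25 μM, 0.2% fatty-acid-free BSA, 0.2% DMSO). IC50 came from least-squares curve fitting, expressed as −log(IC50).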

A2780 ovarian cells [3] = test: A2780 Ovarian Cell Proliferation Assay in Lipid Reduced Medium, without Palmitate; assay type: cell-based; settings: Homo sapiens, A2780; lipid reduced medium, without palmitate, 96 h, MTT; read-out: Proliferation A2780 w/o Palmitate pIC50 (converted)
Summary of the method: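 A2780 cells were seeded in 10% FCS medium and switched next day to 10% lipid-reduced serum without palmitate. Compounds at 0.01–30 μM were added with 0.2% DMSO, 0.2% fatty-acid-free BSA and 0.25% ethanol final. After 96 h, MTT absorbance at 544 nm was normalized to plate controls, and IC50/pIC50 came from a 4-parameter logistic fit.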

[4] = biological target: T2, FASN Keto-reductase Domain (Homo sapiens, UniProt P49327); test: Fatty Acid Synthase Keto-Reductase Domain (FASN KR) Inhibition; assay type: biochemical; settings: mean where tested more than once; read-out: FASN K-R Domain pIC50 (converted)
T2 construct: 10 μL hFASN enzyme (full length, 300 ng, purified in house) and 360 μM NADPH; made in house
Summary of the method: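 Keto-reductase activity followed as NADPH consumption (A340 drop between 0 and 20 min, room temperature) using in-house full-length hFASN, 360 μM NADPH and ethyl acetoacetate substrate (180 mM stock), pH 7.5 phosphate buffer.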

T2 sequence (P49327 whole entry, the tested form may be a part): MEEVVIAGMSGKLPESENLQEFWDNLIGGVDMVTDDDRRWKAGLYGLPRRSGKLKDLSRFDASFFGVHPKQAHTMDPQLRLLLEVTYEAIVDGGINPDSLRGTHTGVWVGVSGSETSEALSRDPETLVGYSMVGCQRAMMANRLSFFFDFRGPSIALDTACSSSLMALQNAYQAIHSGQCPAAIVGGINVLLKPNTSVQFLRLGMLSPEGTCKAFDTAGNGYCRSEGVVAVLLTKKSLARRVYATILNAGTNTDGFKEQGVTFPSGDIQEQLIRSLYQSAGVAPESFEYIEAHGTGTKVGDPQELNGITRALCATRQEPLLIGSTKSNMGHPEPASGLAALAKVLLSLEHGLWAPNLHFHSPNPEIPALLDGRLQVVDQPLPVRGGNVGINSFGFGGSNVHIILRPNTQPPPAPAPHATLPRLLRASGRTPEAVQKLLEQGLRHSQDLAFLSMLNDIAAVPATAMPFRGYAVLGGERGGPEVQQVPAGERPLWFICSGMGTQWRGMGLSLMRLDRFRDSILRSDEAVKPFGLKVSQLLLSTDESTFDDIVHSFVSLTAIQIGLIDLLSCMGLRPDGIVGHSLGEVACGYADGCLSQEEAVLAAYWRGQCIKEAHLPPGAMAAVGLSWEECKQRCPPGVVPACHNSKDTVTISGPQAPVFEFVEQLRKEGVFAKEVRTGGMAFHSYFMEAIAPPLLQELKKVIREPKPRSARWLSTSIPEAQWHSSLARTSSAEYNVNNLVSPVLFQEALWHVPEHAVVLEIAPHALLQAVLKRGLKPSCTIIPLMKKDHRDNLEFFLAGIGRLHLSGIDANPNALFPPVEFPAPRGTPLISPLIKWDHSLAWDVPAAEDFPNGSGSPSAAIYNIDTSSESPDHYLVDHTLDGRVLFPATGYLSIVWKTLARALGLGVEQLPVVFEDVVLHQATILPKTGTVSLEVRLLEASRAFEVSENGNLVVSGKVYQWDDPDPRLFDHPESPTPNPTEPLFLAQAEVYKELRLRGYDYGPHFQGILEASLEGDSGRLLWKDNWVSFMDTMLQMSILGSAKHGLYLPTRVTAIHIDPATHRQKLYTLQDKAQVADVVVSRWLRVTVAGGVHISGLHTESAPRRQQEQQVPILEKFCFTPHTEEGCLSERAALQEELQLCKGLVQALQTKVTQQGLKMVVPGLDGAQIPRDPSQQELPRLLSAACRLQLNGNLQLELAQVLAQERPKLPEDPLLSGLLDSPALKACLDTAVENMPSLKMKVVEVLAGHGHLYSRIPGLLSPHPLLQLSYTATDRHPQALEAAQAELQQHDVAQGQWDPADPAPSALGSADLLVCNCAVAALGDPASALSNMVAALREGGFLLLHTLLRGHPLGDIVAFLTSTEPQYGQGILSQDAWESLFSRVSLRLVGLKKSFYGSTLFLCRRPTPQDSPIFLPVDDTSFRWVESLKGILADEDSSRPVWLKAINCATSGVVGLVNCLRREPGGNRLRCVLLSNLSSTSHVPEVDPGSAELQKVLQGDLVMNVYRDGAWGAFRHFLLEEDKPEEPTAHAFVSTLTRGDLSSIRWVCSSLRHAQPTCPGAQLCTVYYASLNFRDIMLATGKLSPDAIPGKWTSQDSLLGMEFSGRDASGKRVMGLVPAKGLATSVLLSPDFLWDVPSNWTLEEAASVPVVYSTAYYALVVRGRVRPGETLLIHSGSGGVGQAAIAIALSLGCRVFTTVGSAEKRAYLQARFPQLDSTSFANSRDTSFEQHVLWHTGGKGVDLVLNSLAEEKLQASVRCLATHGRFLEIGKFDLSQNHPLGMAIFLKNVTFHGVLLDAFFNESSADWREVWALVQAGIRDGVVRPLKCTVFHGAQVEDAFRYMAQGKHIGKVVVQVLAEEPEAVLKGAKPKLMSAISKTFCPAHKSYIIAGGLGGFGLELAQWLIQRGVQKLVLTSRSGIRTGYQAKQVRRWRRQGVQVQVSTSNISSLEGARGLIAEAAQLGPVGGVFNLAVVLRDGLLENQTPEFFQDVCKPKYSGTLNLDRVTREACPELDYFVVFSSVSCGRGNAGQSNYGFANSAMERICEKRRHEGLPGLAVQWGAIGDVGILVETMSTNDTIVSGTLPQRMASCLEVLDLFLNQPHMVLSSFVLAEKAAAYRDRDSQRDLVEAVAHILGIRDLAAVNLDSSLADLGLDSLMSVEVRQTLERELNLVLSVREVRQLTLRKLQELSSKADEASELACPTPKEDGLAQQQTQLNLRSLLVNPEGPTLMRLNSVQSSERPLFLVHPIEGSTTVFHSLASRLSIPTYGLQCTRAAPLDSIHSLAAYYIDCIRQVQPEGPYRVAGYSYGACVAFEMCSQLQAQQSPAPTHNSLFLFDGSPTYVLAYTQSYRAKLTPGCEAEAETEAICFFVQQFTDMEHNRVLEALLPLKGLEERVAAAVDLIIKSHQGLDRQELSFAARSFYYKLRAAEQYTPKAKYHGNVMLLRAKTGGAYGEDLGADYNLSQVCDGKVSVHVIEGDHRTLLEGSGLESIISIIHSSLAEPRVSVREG
T1 sequence (P49327 whole entry): as the sequence (P49327 whole entry, the tested form may be a part) above

Structure (SMILES) | IC50 [1] [nM] | inhibition at 10 µM [1] [%] | IC50 (A2780 ovarian cells [2]) [nM] | IC50 (A2780 ovarian cells [3]) [nM] | IC50 [4] [nM]
Cc1ccc(C(=O)N2CCC(c3ccc(-c4cnn(C)c4)cc3)C2)cc1NC(=O)c1ccc(Cl)nc1 (stereo not drawn) [Compound 203, 6-chloro-N-(2-methyl-5-(3-(4-(1-methyl-1H-pyrazol-4-yl)phenyl)pyrrolidine-1-carbonyl)phenyl)nicotinamide] | 282 | 97 | > 10000 | 372 | 977
Cc1ccc(C(=O)N2CCC(c3ccc(-c4cnn(C)c4)cc3)C2)cc1NC(=O)c1ccc(N2CCOCC2)nc1 (stereo not drawn) [Compound 204, N-(2-methyl-5-(3-(4-(1-methyl-1H-pyrazol-4-yl)phenyl)pyrrolidine-1-carbonyl)phenyl)-6-morpholinonicotinamide] | 129 | 107 | > 10000 | 107 | 398
CCN1CC(C(=O)Nc2cc(C(=O)N3CCC(c4ccc(-c5cnn(C)c5)cc4)CC3)ccc2C)C1 [Compound 205, 1-ethyl-N-(2-methyl-5-(4-(4-(1-methyl-1H-pyrazol-4-yl)phenyl)piperidine-1-carbonyl)phenyl)azetidine-3-carboxamide] | 269 | 95 | > 10000 | 355 | 589
Cc1ccc(C(=O)N2CCC(c3ccc(-c4cnn(C)c4)cc3)CC2)cc1NC(=O)C1CN(C(C)C)C1 [Compound 206, 1-isopropyl-N-(2-methyl-5-(4-(4-(1-methyl-1H-pyrazol-4-yl)phenyl)piperidine-1-carbonyl)phenyl)azetidine-3-carboxamide] | 158 | 99 | > 10000 | 151 | 457
Cc1ccc(C(=O)N2CCC(c3ccc(-c4cnn(C)c4)cc3)CC2)cc1NC(=O)C1CCN(C(C)C)C1 (stereo not drawn) [Compound 207, 1-isopropyl-N-(2-methyl-5-(4-(4-(1-methyl-1H-pyrazol-4-yl)phenyl)piperidine-1-carbonyl)phenyl)pyrrolidine-3-carboxamide] | 132 | 105 | > 10000 | 182 | 479
CCCN1CC(C(=O)Nc2cc(C(=O)N3CCC(c4ccc(-c5cnn(C)c5)cc4)CC3)ccc2C)C1 [Compound 208, N-(2-methyl-5-(4-(4-(1-methyl-1H-pyrazol-4-yl)phenyl)piperidine-1-carbonyl)phenyl)-1-propylazetidine-3-carboxamide] | 269 | 101 | > 10000 | 275 | 631
Cc1ccc(C(=O)N2CCC(c3ccc(-c4cnn(C)c4)cc3)CC2)cc1NC(=O)C1CCN(C2CCC2)CC1 [Compound 209, 1-cyclobutyl-N-(2-methyl-5-(4-(4-(1-methyl-1H-pyrazol-4-yl)phenyl)piperidine-1-carbonyl)phenyl)piperidine-4-carboxamide] | 31.6 | 105 | > 10000 | 10 | 74.1
Cc1ccc(C(=O)N2CCC(c3ccc(-c4cnn(C)c4)cc3)CC2)cc1NC(=O)C1CN(CC(C)C)C1 [Compound 210, 1-isobutyl-N-(2-methyl-5-(4-(4-(1-methyl-1H-pyrazol-4-yl)phenyl)piperidine-1-carbonyl)phenyl)azetidine-3-carboxamide] | 85.1 | 108 | > 10000 | 110 | 309
CCCCN1CCC(C(=O)Nc2cc(C(=O)N3CCC(c4ccc(-c5cnn(C)c5)cc4)CC3)ccc2C)CC1 [Compound 211, 1-butyl-N-(2-methyl-5-(4-(4-(1-methyl-1H-pyrazol-4-yl)phenyl)piperidine-1-carbonyl)phenyl)piperidine-4-carboxamide] | 31.6 | 113 | > 10000 | 18.6 | 74.1
CCCCN1CCC(C(=O)Nc2cc(C(=O)N3CCC(c4ccc(-c5cnn(C)c5)cc4)CC3)ccc2C)C1 (stereo not drawn) [Compound 212, 1-butyl-N-(2-methyl-5-(4-(4-(1-methyl-1H-pyrazol-4-yl)phenyl)piperidine-1-carbonyl)phenyl)pyrrolidine-3-carboxamide] | 120 | 108 | > 10000 | 120 | 324
Cc1ccc(C(=O)N2CCC(c3ccc(-c4cnn(C)c4)cc3)CC2)cc1NC(=O)C1CN(CCC(C)C)C1 [Compound 213, 1-isopentyl-N-(2-methyl-5-(4-(4-(1-methyl-1H-pyrazol-4-yl)phenyl)piperidine-1-carbonyl)phenyl)azetidine-3-carboxamide] | 45.7 | 111 | > 10000 | 64.6 | 195
CCCCCN1CC(C(=O)Nc2cc(C(=O)N3CCC(c4ccc(-c5cnn(C)c5)cc4)CC3)ccc2C)C1 [Compound 214, N-(2-methyl-5-(4-(4-(1-methyl-1H-pyrazol-4-yl)phenyl)piperidine-1-carbonyl)phenyl)-1-pentylazetidine-3-carboxamide] | 166 | 107 | 9550 | 275 | 282
CCCCCN1CCC(C(=O)Nc2cc(C(=O)N3CCC(c4ccc(-c5cnn(C)c5)cc4)CC3)ccc2C)C1 (stereo not drawn) [Compound 215, N-(2-methyl-5-(4-(4-(1-methyl-1H-pyrazol-4-yl)phenyl)piperidine-1-carbonyl)phenyl)-1-pentylpyrrolidine-3-carboxamide] | 105 | 107 | 9330 | 191 | 309
CCCCCCN1CCC(C(=O)Nc2cc(C(=O)N3CCC(c4ccc(-c5cnn(C)c5)cc4)CC3)ccc2C)CC1 [Compound 216] | 36.3 | 113 | 5620 | 43.7 | 91.2
Cc1ccc(C(=O)N2CCC(c3ccc(-c4cnn(C5CCOCC5)c4)cc3)CC2)cc1NC(=O)c1ccc(NC(C)C)nc1 [Compound 217] | 174 | 105 | > 10000 | 214 | 501
CCCCCCN1CCC(C(=O)Nc2cc(C(=O)N3CCC(c4ccc(-c5cnn(C)c5)cc4)CC3)ccc2C)C1 (stereo not drawn) [Compound 218, 1-hexyl-N-(2-methyl-5-(4-(4-(1-methyl-1H-pyrazol-4-yl)phenyl)piperidine-1-carbonyl)phenyl)pyrrolidine-3-carboxamide] | 145 | 105 | 8510 | 407 | 389
Cc1ccc(C(=O)N2CCC(c3ccc(-c4cnn(C)c4)cc3)CC2)cc1NC(=O)C1CN(C(=O)C2CC2)C1 [Compound 219, 1-(cyclopropanecarbonyl)-N-(2-methyl-5-(4-(4-(1-methyl-1H-pyrazol-4-yl)phenyl)piperidine-1-carbonyl)phenyl)azetidine-3-carboxamide] | 64.6 | 116 | > 10000 | 234 | 200
Cc1ccc(C(=O)N2CCC(c3ccc(-c4cnn(C)c4)cc3)CC2)cc1NC(=O)C1CCN(C(=O)C2CC2)C1 (stereo not drawn) [Compound 220, 1-(cyclopropanecarbonyl)-N-(2-methyl-5-(4-(4-(1-methyl-1H-pyrazol-4-yl)phenyl)piperidine-1-carbonyl)phenyl)pyrrolidine-3-carboxamide] | 67.6 | 110 | > 10000 | 95.5 | 174
